Data: patent publication US20210116454A1, “METHODS FOR TREATING A HEMATOLOGICAL CANCER AND THE USE OF COMPANION BIOMARKERS FOR 2-(2,6-DIOXOPIPERIDIN-3-YL)-4-((2-FLUORO-4-((3-MORPHOLINOAZETIDIN-1-YL)METHYL)BENZYL)AMINO)ISOINDOLINE-1,3-DIONE” (CELGENE CORPORATION, priority 2019, published 2021)

Experiments:
[1] = system: SU-DHL-6; assay: 5-day viable cell number and apoptosis (7-AAD exclusion/Annexin V flow cytometry); assay type: cell-based; details: SU-DHL-6 cells, 5 days
Procedure, shortened: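 Each lymphoma line in the panel receives increasing doses of compound. At day 5, viable cell number and apoptosis (Annexin V, 7-AAD exclusion by flow cytometry) are determined.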

[2] = system: Karpas-422 cells; assay: Western blot of substrates and downstream proteins; assay type: cell-based
Method: (§1) To confirm that the rapid degradation of substrates and induction of apoptosis by Compound 1 is not unique to SU-DHL2 cells, TMD8 (ABC cell line) and Karpas-422 (GCB-cell line) cells were treated with vehicle control (DMSO) or Compound 1 at the times and concentrations indicated (FIG. 6).
(§2) In a second experiment, we confirmed that Compound 1 (100 nM) treatment of TMD8 produced a large reduction of Aiolos, Ikaros, and ZFP91 at the 24-hour timepoint. […] In Karpas-422 cells, Compound 1 also produced a reduction of Aiolos, Ikaros, and ZFP91 at the 24-hour timepoint (FIG. 6, panel D). At the 48-hour timepoint, Compound 1 increased the abundance of the proliferation inhibitor p21 and the interferon-stimulated genes IRF7, IFIT3, and DDX58, and reduced the expression of MYC (FIG. 6, panel D).

[3] = system: TMD8 cells; assay: Western blot of substrates and downstream proteins; assay type: cell-based
Method: as §1, §2

[4] = molecular target: cereblon (CRBN) (Homo sapiens, UniProt Q96SW2); assay: Cereblon binding TR-FRET ligand competition assay
Method: To investigate whether Compound 1 and its R-enantiomer Compound 2 could bind to cereblon, a short duration (10 to 20 minutes) ligand competition assay was used.

[5] = system: LPS system; assay: BioMAP LPS system (PBMCs and endothelial cells); assay type: cell-based, human; details: 0.01, 0.1, 1, and 10 μM
Method: The activity of Compound 1 was profiled in a panel of human primary cell-based assays, modeling complex tissue and disease biology of organs (vasculature, immune system, skin, lung) and general tissue biology using the BioMAP System (DiscoveRx, Fremont, Calif.).
The BioMAP System consists of twelve primary human monoculture or co-culture systems in stimulated and non-stimulated control conditions (FIG. 4, panel A). When tested at 0.01, 0.1, 1, and 10 μM, Compound 1 mediated changes in key biomarker activities. Specifically, the profiles for Compound 1 reflected selective anti-inflammatory and immunomodulatory impact on monocyte (LPS) and T cell dependent B cell activation responses (BT). Treatment with Compound 1 led to a decrease in interleukin 8 (IL-8), interleukin 1a (IL-1a), secreted prostaglandin E2 (sPGE2), and secreted tumor necrosis factor alpha (sTNFα) in the LPS system, which consisted of peripheral blood mononuclear cells (PBMCs) and endothelial cells. Furthermore, secreted IgG (sIgG), secreted interleukin 17A (sIL-17A), secreted interleukin 17F (sIL-17F), and sTNFα decreased, whereas secreted interleukin 2 (sIL-2) and secreted interleukin 6 (sIL-6) increased, in the BT system, which was comprised of B cells and PBMCs.

[6] = system: 11 DLBCL cell lines; assay: Integrated proteomics (TMT-MS) and RNA-Seq profiling; assay type: cell-based; details: 0.04 μM; 12, 24 and 48 hours
Method: Biomarkers associated with the cytotoxic effects of Compound 1 treatment in DLBCL, such as signaling and regulatory pathways, were determined by integrative network analysis using transcriptomic and proteomic profiling. The approach consisted of a network flow optimization using a knowledge driven backbone network with protein interactions and regulatory associations similar to what was described previously (Basha, Mauer, Simonovsky, Shpringer, & Yeger-Lotem, 2019; Gosline, Spencer, Ursu, & Fraenkel, 2012).
Briefly, differential expression analysis and differential protein abundance analysis at different timepoints were integrated using a model framework. […]
To begin, cell line sensitivity to Compound 1 was determined by flow cytometry for 40 cell line models using DRAQ7 and Annexin V staining to quantify the reduction in proliferation and induction of apoptosis after five days of compound treatment. […] Sensitivity was calculated by calculating the ratio of (AUCapoptosis/AUClive cells), where smaller ratios indicated resistance, and larger ratios indicated sensitivity. […]

[7] = TMD8, 100 nM, 24-hour timepoint

SMILES: O=C1CC[C@H](N2C(=O)c3cccc(NCc4ccc(CN5CC(N6CCOCC6)C5)cc4F)c3C2=O)C(=O)N1 [Compound 1, (S)-2-(2,6-dioxopiperidin-3-yl)-4-((2-fluoro-4-((3-morpholinoazetidin-1-yl)methyl)benzyl)amino)isoindoline-1,3-dione]
- EC50 ([1]; Homo sapiens, 120 h): 0.452 µM
- Emax ([1]; Homo sapiens, 120 h): 46.3%
- IC50 ([1]; Homo sapiens, 120 h): 0.26 µM
- % Viable Cells AUC [1]: 88.38
- % Viable Cells Emax [1]: 5.843%
- % Viable Cells Sensitivity [1]: High (highly sensitive to Compound 1 with less than 6% viable cells remaining (Emax) after treatment)
- Apoptosis AUC [1]: 421.1
- Apoptosis Sensitivity [1]: High
- Ikaros, Aiolos, and ZFP91 protein expression ([2]; Karpas-422, 10 and 100 nM, entire course of treatment): complete suppression
- MYC reduction ([2]; Karpas-422, after 72 hours): 50%
- BCL6 reduction [3, 7]: 65%
- IRF4 reduction [3, 7]: 90%
- MYC reduction [3, 7]: 75%
- Ikaros, Aiolos, and ZFP91 protein expression ([3]; TMD8, 10 and 100 nM, entire course of treatment): complete suppression
- higher binding affinity for CRBN compared to Compound 2 [4]: eleven-fold
- IC50 ([4]; 10 to 20 minutes, n=5): 0.86 ± 0.1 µM
- IL-8, IL-1a, sPGE2, and sTNFα [5]: decrease
- genes associated with cell cycle and transcription [6]: global down-regulation
- genes associated with interferon signaling, cytokine/chemokine signaling, apoptosis, cell adhesion, cell-cell junction, GPCRs, extracellular matrix [6]: up-regulation
